Assay [1] deals with T1, Alpha-1B adrenergic receptor (Rattus norvegicus, UniProt P15823).
T1 sequence (P15823 whole entry): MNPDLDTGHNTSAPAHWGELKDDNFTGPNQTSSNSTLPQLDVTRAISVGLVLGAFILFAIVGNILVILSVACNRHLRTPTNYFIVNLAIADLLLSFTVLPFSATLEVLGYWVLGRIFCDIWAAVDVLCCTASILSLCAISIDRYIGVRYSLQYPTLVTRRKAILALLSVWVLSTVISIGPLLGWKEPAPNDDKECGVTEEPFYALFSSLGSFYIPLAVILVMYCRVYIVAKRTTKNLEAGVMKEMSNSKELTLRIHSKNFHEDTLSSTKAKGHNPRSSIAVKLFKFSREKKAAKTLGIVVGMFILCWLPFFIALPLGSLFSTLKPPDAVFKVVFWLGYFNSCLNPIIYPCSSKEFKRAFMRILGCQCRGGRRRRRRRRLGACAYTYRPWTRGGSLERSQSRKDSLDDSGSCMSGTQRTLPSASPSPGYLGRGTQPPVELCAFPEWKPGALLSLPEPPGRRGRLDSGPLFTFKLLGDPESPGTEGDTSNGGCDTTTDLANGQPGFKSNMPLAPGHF
The assay can be described thus: Displacement of [3H]prazosin from adrenergic alpha-1B receptor in rat liver membranes. Type of assay: cell membranes, Membrane. (Displacement assays read how much labelled ligand stays bound in the presence of the test substance.)

For assay [2], the target named is T2, Alpha-1A adrenergic receptor (Rattus norvegicus, UniProt P43140).
T2 sequence (P43140 whole entry): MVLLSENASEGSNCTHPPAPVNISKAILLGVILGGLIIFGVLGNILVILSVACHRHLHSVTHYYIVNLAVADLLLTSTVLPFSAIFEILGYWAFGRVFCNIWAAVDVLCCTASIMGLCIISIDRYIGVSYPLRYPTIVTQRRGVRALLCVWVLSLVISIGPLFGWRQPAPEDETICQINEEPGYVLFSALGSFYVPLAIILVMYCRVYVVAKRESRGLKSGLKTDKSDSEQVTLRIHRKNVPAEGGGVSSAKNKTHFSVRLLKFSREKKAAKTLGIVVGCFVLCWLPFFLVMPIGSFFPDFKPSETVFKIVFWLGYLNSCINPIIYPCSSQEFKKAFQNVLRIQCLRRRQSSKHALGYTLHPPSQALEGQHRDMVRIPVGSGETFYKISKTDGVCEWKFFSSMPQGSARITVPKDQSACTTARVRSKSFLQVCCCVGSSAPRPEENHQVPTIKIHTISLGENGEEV
Kind of assay: Displacement of [3H]prazosin from adrenergic alpha-1A receptor in rat submaxillary gland membranes. Type of assay: cell membranes, Membrane.

The target in assay [3] is T3, Alpha-1D adrenergic receptor (Homo sapiens, UniProt P25100).
T3 sequence (P25100 whole entry): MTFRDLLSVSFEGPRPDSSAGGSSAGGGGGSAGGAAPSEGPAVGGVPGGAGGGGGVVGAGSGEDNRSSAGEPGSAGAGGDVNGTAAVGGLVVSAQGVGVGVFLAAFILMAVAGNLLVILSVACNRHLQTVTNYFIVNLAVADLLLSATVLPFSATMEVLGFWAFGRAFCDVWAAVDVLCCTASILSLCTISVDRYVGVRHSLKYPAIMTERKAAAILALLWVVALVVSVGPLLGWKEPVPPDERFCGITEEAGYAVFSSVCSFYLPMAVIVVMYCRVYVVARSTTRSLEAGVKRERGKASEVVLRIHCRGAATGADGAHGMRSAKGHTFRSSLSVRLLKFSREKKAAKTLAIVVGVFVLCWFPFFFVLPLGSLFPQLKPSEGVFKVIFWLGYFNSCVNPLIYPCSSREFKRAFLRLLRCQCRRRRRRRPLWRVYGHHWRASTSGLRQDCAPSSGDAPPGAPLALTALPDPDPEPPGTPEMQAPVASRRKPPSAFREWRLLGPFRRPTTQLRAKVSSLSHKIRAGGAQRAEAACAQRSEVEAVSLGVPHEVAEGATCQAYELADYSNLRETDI
Kind of assay: Binding affinity to human adrenergic Alpha-1D receptor.

The target in assay [4] is T4, Adrenergic receptor alpha-2 (Rattus norvegicus, UniProt P22086+P19328+P22909).
T4 sequence (P22086 whole entry): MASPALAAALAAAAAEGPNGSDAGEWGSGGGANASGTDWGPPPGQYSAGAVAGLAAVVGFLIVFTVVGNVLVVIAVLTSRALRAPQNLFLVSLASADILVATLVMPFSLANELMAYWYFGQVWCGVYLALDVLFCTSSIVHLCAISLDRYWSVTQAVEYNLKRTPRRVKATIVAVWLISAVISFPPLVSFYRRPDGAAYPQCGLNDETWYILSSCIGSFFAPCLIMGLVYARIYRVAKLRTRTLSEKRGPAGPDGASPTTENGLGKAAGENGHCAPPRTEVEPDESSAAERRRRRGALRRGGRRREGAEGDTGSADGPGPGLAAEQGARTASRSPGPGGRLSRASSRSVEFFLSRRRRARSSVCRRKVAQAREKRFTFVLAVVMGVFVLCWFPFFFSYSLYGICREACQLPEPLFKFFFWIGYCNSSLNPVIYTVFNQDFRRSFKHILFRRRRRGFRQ
T4 sequence (P19328 whole entry): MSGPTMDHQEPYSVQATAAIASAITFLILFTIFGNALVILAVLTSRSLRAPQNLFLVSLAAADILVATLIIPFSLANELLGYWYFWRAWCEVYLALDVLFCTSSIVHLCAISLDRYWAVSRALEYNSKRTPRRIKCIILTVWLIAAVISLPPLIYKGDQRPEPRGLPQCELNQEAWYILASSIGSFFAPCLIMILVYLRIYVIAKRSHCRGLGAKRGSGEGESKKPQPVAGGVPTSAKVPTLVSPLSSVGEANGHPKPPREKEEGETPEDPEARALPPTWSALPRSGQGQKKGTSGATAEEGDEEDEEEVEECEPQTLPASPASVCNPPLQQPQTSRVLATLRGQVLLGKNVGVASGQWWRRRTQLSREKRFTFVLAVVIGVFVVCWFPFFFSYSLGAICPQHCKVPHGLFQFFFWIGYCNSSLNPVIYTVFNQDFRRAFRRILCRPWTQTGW
T4 sequence (P22909 whole entry): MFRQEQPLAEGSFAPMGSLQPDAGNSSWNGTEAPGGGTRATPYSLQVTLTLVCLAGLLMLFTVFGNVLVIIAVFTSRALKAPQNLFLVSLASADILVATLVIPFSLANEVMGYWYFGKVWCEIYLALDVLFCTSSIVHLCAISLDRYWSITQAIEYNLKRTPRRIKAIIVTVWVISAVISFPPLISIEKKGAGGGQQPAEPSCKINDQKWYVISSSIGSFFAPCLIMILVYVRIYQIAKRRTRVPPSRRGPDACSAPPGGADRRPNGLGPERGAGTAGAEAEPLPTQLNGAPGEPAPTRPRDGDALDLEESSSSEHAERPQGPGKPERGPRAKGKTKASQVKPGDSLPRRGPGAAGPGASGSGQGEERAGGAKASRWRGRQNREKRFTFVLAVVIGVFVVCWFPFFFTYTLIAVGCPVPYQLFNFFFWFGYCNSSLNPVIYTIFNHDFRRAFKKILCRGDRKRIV
Kind of assay: Binding affinity to rat adrenergic alpha2 receptor. Type of assay: protein assay.

The target in assay [5] is Adrenergic receptor beta (Rattus norvegicus, UniProt P18090+P10608+P26255). The assay can be described thus: Binding affinity to rat adrenergic beta receptor. Type of assay: protein assay.

Bounds are passed on as bounds.

As usually defined, the Ki is a dissociation constant, usually derived from enzyme kinetics or from competition with a known ligand.

`c1ccc(CC2CCN(CCCN3CCCCC3)CC2)cc1`: in assay [1], the Ki was found to be 1120 nM.

`Fc1ccc2[nH]cc(C3CCN(CCCN4CCCCC4)CC3)c2c1`: the Ki in assay [2] was determined as 690 nM; in assay [1] it was 16 nM.

As to `c1ccc2c(C3CCN(CCCN4CCCCC4)CC3)coc2c1`, the Ki in assay [2] came out at 60 nM; in assay [1], 7.7 nM.

`Oc1nc2ccccc2n1C1CCN(CCCN2CCCCC2)CC1`: the Ki was found to be 900 nM in assay [2] and 70 nM in assay [1].

As to `c1ccc2c(C3CCN(CCCN4CCCCC4)CC3)noc2c1`, the results for the Ki in assay [2] and in assay [1] were 57 nM and 14 nM, respectively.

As for `Cl.Cl.c1ccc2c(C3CCN(CCCCCN4CCCCC4)CC3)c[nH]c2c1`, the Ki was 37 nM in assay [3], 355 nM in assay [4] and more than 1000 nM in assay [5].

As for `Cl.Cl.Fc1ccc2c(C3CCN(CCCN4CCCCC4)CC3)c[nH]c2c1`, the results for the Ki in assay [3], in assay [4] and in assay [5] were 22 nM, 140 nM and more than 1000 nM, respectively.

Regarding `c1ccc2c(C3CCN(CCCCN4CCCCC4)CC3)c[nH]c2c1`, the results for the Ki in assay [2] and in assay [1] were 56 nM and 1.1 nM, respectively.

On to `Cc1[nH]c2ccccc2c1C1CCN(CCCN2CCCCC2)CC1`, for which the figures for the Ki in assay [2] and in assay [1] were 1900 nM and 71 nM, respectively.

Consider `Cl.Cl.c1ccc2c(C3CCN(CCCN4CCCCC4)CC3)c[nH]c2c1`, for which the Ki was 120 nM in assay [2]; 3 nM in assay [1]; 69 nM in assay [3]; 370 nM in assay [4]; more than 1000 nM in assay [5].

Consider `Cn1cc(C2CCN(CCCN3CCCCC3)CC2)c2ccccc21`, for which the values for the inhibition constant (Ki) in assay [2] and in assay [1] were 480 nM and 60 nM, respectively.

For the origin of these results see ChEMBL document CHEMBL1146014, “Design and synthesis of selective alpha1B adrenoceptor antagonists” (Bioorg Med Chem Lett, 2006).
